One test has as its target E. coli XGPRT (Escherichia coli (strain K12), UniProt P0A9M5). In words: Ki values with E. coli XGPRT. As to conditions: read-out: Ki (μM) XGPRT.
A further test relates to P. falciparum strain D6. Description: [3H]-hypoxanthine growth inhibition assay, P. falciparum D6. The settings on record: Plasmodium falciparum; for IC50: D6, read-out: D6 IC50; for IC90: D6, read-out: D6 IC90.
A further test relates to P. falciparum strain W2. In words: [3H]-hypoxanthine growth inhibition assay, P. falciparum W2. The settings on record: Plasmodium falciparum; for IC50: W2, read-out: W2 IC50; for IC90: W2, read-out: W2 IC90.
The target of the next test is PvHGPRT (Plasmodium vivax, UniProt A5K7E9). Description: biochemical. The settings on record: for Ki ratio (proto:phosphonatoethyl): PvHGPRT, decrease in Ki when N-H is replaced by phosphonoethyl.
PvHGPRT, sequence (A5K7E9 1-233): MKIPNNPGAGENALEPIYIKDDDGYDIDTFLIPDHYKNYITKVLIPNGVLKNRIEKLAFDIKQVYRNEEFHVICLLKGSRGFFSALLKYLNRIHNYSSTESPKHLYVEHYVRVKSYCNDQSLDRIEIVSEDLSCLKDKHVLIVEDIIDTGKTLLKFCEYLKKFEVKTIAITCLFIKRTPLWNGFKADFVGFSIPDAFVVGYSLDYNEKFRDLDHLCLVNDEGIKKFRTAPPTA
Another test addresses human HGPRT (Homo sapiens (Human), UniProt P00492). Description: Ki determination, spectrophotometric assay, human HGPRT. It counts as biochemical. As to conditions: Ki(app), 25° C., pH 7.4, guanine 60 μM.
The target in a further test is PfHGXPRT (Plasmodium falciparum (isolate FCR-3 / Gambia), UniProt P20035). Description: biochemical. It counts as biochemical.
Test [1] concerns M. tuberculosis H37Ra (ATCC 25177). In words: Resazurin reduction microplate assay, M. tuberculosis. As to conditions: five days at 37° C., resazurin fluorescence. Background: Resazurin is reduced to fluorescent resorufin, in cell work by metabolically active cells.
Setting [2] is: Ki(app), 25° C., pH 7.4, guanine 60 μM, read-out: Ki Pv.
Setting [3] is: Ki(app), 25° C., pH 7.4, guanine 60 μM, read-out: Ki Pf.

Read-outs that look alike come from different tables or passages of the source.

human HGPRT, sequence (P00492 whole entry): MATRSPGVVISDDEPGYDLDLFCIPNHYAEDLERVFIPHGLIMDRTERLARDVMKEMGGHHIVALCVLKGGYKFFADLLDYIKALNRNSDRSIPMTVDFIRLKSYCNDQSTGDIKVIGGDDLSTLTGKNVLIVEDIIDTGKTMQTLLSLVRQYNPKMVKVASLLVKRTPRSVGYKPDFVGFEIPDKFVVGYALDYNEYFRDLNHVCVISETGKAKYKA

As to `Nc1nc2c(ncn2CCN(CCOCP(=O)(O)O)CCP(=O)(O)O)c(=O)[nH]1` [Compound 1], the Ki on E. coli XGPRT came out at 0.4 µM.
On to `Nc1nc2c(ncn2CCN(CCP(=O)(O)O)CP(=O)(O)O)c(=O)[nH]1` [Compound 2], for which the Ki at E. coli XGPRT was determined as 27 µM.
Usually IC50 stands for the point on the concentration scale where inhibition reaches its midpoint. The term IC90 denotes the point of the concentration-response curve where the effect stands at 90%. Turning to `N#CCCCN(CCn1cnc2c(=O)[nH]c(N)nc21)CCP(=O)(O)O` [Compound 4], in the test on P. falciparum strain D6, the IC50 was found to be 8.6 ± 1.5 µM and the IC90 turned out to be 24.5 ± 3.5 µM. For the same molecule, in the test on P. falciparum strain W2, the IC50 was found to be 5.7 ± 3.9 µM and the IC90 came out at 32.5 ± 3.5 µM.
Consider `CCOC(=O)[C@H](Cc1ccccc1)NP(=O)(CCN(CCCC#N)CCn1cnc2c(=O)[nH]cnc21)N[C@@H](Cc1ccccc1)C(=O)OCC` [Compound 6], for which, in the test on P. falciparum strain D6, the IC50 turned out to be 4.2 ± 1.4 µM and the IC90 came out at 10.6 ± 1.8 µM. For the same molecule, in the test with P. falciparum strain W2, the IC50 came out at 5.5 ± 1.6 µM and the IC90 came to 16.1 ± 0.1 µM.
The corresponding values for `COC(=O)CCN(CCn1cnc2c(=O)[nH]c(N)nc21)CCP(=O)(O)O` [Compound 8] are 3.5 ± 1 µM, 8.6 ± 1.4 µM, 2.9 ± 1.1 µM and 15.9 ± 4.5 µM.
The corresponding values for `CCOC(=O)[C@H](Cc1ccccc1)NP(=O)(CCN(CCC(=O)OC)CCn1cnc2c(=O)[nH]c(N)nc21)N[C@@H](Cc1ccccc1)C(=O)OCC` [Compound 10] are 11.8 ± 1.6 µM, 30 ± 2.9 µM, 5.6 ± 1.8 µM and 37.5 ± 3.5 µM.
For `N#CCCN(CCn1cnc2c(=O)[nH]c(N)nc21)CCP(=O)(O)O` [Compound 11], the IC50 in the test on P. falciparum strain D6 was about 145 µM.
With `N#CCCN(CCn1cnc2c(=O)[nH]cnc21)CCP(=O)(O)O` [Compound 12], in the test on P. falciparum strain D6, the IC50 was found to be 6.4 ± 0.9 µM and the IC90 is 10.2 ± 1.6 µM. In the test on P. falciparum strain W2, the 50% inhibitory concentration (IC50) came out at 10.4 ± 2 µM and the IC90 came to 21.2 ± 1 µM.
For the molecule `CCCOC(=O)[C@H](Cc1ccccc1)NP(=O)(CCN(CCC#N)CCn1cnc2c(=O)[nH]c(N)nc21)N[C@@H](Cc1ccccc1)C(=O)OCCC` [Compound 13], in the test with P. falciparum strain D6, the half-inhibitory concentration (IC50) worked out at 75 µM and the IC90 was found to be 215 µM.
`CCCOC(=O)[C@H](Cc1ccccc1)NP(=O)(CCN(CCC#N)CCn1cnc2c(=O)[nH]cnc21)N[C@@H](Cc1ccccc1)C(=O)OCCC` [Compound 14]: in the test with P. falciparum strain D6, the IC50 worked out at 12.3 ± 1.6 µM and the IC90 was 18.7 ± 1.7 µM. In addition, in the test with P. falciparum strain W2, the IC50 was determined as 19.3 ± 7.5 µM and the IC90 is 48 ± 13.6 µM.
`COC(=O)CCCN(CCn1cnc2c(=O)[nH]c(N)nc21)CCP(=O)(O)O` [Example 3, 9-[(N-(4-Methoxy-4-oxobutyl)-N-(2-phosphonoethyl))-2-aminoethyl]guanine] registered a Ki on PvHGPRT (Ki Pv) of at least 200 µM.
On to `Nc1nc2c(ncn2CCN(CCP(=O)(O)O)CCP(=O)(O)O)c(=O)[nH]1` [Example 11, 9-[(N,N-(Bis-2-phosphonoethyl))-2-aminoethyl]guanine], for which the “Ki ratio (proto:phosphonatoethyl)” value on PvHGPRT is recorded as 12-fold.
`Nc1nc2c(ncn2CCNCCP(=O)(O)O)c(=O)[nH]1` [Example 12, 9-[(N-(2-Phosphonoethyl))-2-aminoethyl]guanine]: the Ki on PvHGPRT (setting [2]) was determined as 11 ± 0.6 µM; at human HGPRT, 3 ± 0.6 µM; on PfHGXPRT (setting [3]), 16 ± 1 µM.
The corresponding values for `CCOC(=O)CN(CCn1cnc2c(=O)[nH]cnc21)CCP(=O)(O)O` [Example 15, 9-[(N-(2-Ethoxy-2-oxoethyl)-N-(2-phosphonoethyl))-2-aminoethyl]hypoxanthine] are 11 ± 1 µM, 2.6 ± 0.5 µM and 1.9 ± 0.4 µM.
Regarding `COC(=O)CCN(CCn1cnc2c(=O)[nH]cnc21)CCP(=O)(O)O` [Example 16, 9-[(N-(3-Methoxy-3-oxopropyl)-N-(2-phosphonoethyl))-2-aminoethyl]hypoxanthine], the Ki at PvHGPRT (setting [2]) is 21 ± 2 µM; at human HGPRT it was at least 200 µM; on PfHGXPRT (setting [3]), 0.1 ± 0.03 µM.
Regarding `COC(=O)CCCN(CCn1cnc2c(=O)[nH]cnc21)CCP(=O)(O)O` [Example 17, 9-[(N-(4-Methoxy-4-oxobutyl)-N-(2-phosphonoethyl))-2-aminoethyl] hypoxanthine], the Ki is at least 250 µM on PvHGPRT (setting [2]), 22 ± 3 µM on human HGPRT and at least 220 µM on PfHGXPRT (setting [3]).
The like results for `N#CCN(CCn1cnc2c(=O)[nH]cnc21)CCP(=O)(O)O` [Example 18, 9-[(N-(2-Cyanomethyl)-N-(2-phosphonoethyl))-2-aminoethyl]hypoxanthine] were, in that order, 47 ± 5 µM, 35 µM and at least 250 µM.
As to `N#CCCN(CCn1cnc2c(=O)[nH]cnc21)CCP(=O)(O)O` [Example 19, 9-[(N-(2-Cyanoethyl)-N-(2-phosphonoethyl))-2-aminoethyl]hypoxanthine], the results for the Ki on PvHGPRT (setting [2]), on human HGPRT and at PfHGXPRT (setting [3]) were 0.7 ± 0.06 µM, 2.4 ± 0.2 µM and 0.2 ± 0.05 µM, respectively.
The like results for `CC(C#N)CN(CCn1cnc2c(=O)[nH]cnc21)CCP(=O)(O)O` (stereo not shown) [Example 20, 9-[(N-(2-Cyanopropyl)-N-(2-phosphonoethyl))-2-aminoethyl]hypoxanthine] were, in that order, at least 230 µM, 29 ± 2 µM and 6 ± 0.06 µM.
In the case of `O=C(O)CN(CCn1cnc2c(=O)[nH]cnc21)CCP(=O)(O)O` [Example 21, 9-[(N-(Carboxymethyl)-N-(2-phosphonoethyl))-2-aminoethyl]hypoxanthine], at PfHGXPRT, the Ki was 0.6 ± 0.06 µM.
As for `O=C(O)CCN(CCn1cnc2c(=O)[nH]cnc21)CCP(=O)(O)O` [Example 22, 9-[(N-(2-Carboxyethyl)-N-(2-phosphonoethyl))-2-aminoethyl]hypoxanthine], the Ki at PvHGPRT (setting [2]) is 41 ± 5 µM; on human HGPRT, at least 240 µM; on PfHGXPRT (setting [3]), 0.4 ± 0.03 µM.
At PfHGXPRT, `O=C(O)CCCN(CCn1cnc2c(=O)[nH]cnc21)CCP(=O)(O)O` [Example 23, 9-[(N-(Carboxypropyl)-N-(2-phosphonoethyl))-2-aminoethyl]hypoxanthine] had a Ki of at least 210 µM.
Consider `O=c1[nH]cnc2c1ncn2CCN(CCO)CCP(=O)(O)O` [Example 24, 9-[(N-(2-Hydroxyethyl)-N-(2-phosphonoethyl))-2-aminoethyl]hypoxanthine], for which the Ki at PvHGPRT (setting [2]) was found to be 21 ± 3 µM; on human HGPRT, 5.5 ± 0.4 µM; on PfHGXPRT (setting [3]) it was 2.6 ± 0.4 µM.
Regarding `O=c1[nH]cnc2c1ncn2CCN(CCP(=O)(O)O)CCP(=O)(O)O` [Example 25, 9-[(N,N-(Bis-2-phosphonoethyl))-2-aminoethyl]hypoxanthine], at PvHGPRT, the “Ki ratio (proto:phosphonatoethyl)” value was >20-fold. The Ki at PfHGXPRT was 0.4 ± 0.1 µM.
`O=c1[nH]cnc2c1ncn2CCNCCP(=O)(O)O` [Example 26, 9-[(N-(2-Phosphonoethyl))-2-aminoethyl]hypoxanthine]: the Ki on PvHGPRT (setting [2]) is at least 250 µM; at human HGPRT it was 40 ± 2 µM; at PfHGXPRT, at least 200 µM.
Consider `Nc1nc2c(ncn2CCOCCP(=O)(O)O)c(=O)[nH]1` [PEEG, 2-(Phosphonoethoxy)ethyl guanine, reference compound], for which the Ki at human HGPRT was 1 ± 0.5 µM; at PfHGXPRT (setting [3]) it was 0.1 ± 0.02 µM.
For the molecule `O=c1[nH]cnc2c1ncn2CCOCCP(=O)(O)O` [PEEHx, 2-(phosphonoethoxy)ethyl hypoxanthine, reference compound], the values for the Ki on human HGPRT and on PfHGXPRT (setting [3]) were 3.6 ± 0.2 µM and 0.3 ± 0.04 µM, respectively.
For `CCOC(=O)[C@H](Cc1ccccc1)NP(=O)(CCN(CCCC#N)CCn1cnc2c(=O)[nH]cnc21)N[C@@H](Cc1ccccc1)C(=O)OCC` [drawing 83], in test [1], the IC50 turned out to be 60 µM.

(Values after patent US9200020B2, “6-oxopurine phosphoribosyltransferase inhibitors” (THE UNIVERSITY OF QUEENSLAND, priority 2012, dated 2015).)
